{
  "source": "patent US20050244485A1",
  "about": "“Transdermal administration of hydrophilic drugs using a basic permeation enhancer composition” (priority 2003, published 2005)",
  "key": {"[1]": {"test": "In vitro skin permeation of diclofenac sodium transdermal delivery systems, Franz diffusion cells", "format": "in vitro ADME, human", "conditions": "24 hours; for cumulative amount of diclofenac that permeated through the skin: 32° C.", "description": "Each formulation was coated on a release liner and dried in an oven at 65° C. for two hours to remove water and other solvents. The dried drug-in-adhesive/release liner film was laminated to a backing film, and the backing/drug-in-adhesive/release liner laminate was then cut into discs with a diameter of 9/16 inch. The theoretical weight percent weight of each component of the system, after drying (calculated assuming all volatile ingredients were completely removed during drying), is set forth in Table 3.\nThe release liner was peeled away from the disc laminate. […] The skin/adhesive/backing laminate was clamped between the donor and receiver chambers of the diffusion cell with the skin side facing the receiver solution. […] All cells and receiver solution were maintained at 32° C. for the 24-hour duration of the study."}, "[2]": {"conditions": "cited from earlier work; for pH of 0.1 M aqueous sol'n: 0.1M aqueous solution, 25° C."}},
  "data": [
    {"molecule": "O=C(O)Cc1ccccc1Nc1c(Cl)cccc1Cl", "note": "[diclofenac, diclofenac sodium]", "values": [
      {"measurement": "cumulative amount of diclofenac that permeated through the skin", "setting": "[1]; N-methyl glucamine added (Formulation H, with NaOH)", "value": 1.54, "unit": "mg/cm^2"},
      {"measurement": "cumulative amount of diclofenac that permeated through the skin", "setting": "[1]; monoethanolamine added (Formulation G, with NaOH)", "value": 1.57, "unit": "mg/cm^2"},
      {"measurement": "cumulative amount of diclofenac that permeated through the skin", "setting": "[1]; no nitrogenous base added (Formulation E, NaOH only)", "value": 0.90, "unit": "mg/cm^2"},
      {"measurement": "cumulative amount of diclofenac permeated, times higher than when no nitrogenous base was present", "setting": "[1]; system containing monoethanolamine vs no nitrogenous base", "value": "about 1.7 times"},
      {"measurement": "cumulative amount of diclofenac that permeated through the skin", "setting": "[1]; triethanolamine added (Formulation F, with NaOH)", "value": 1.08, "unit": "mg/cm^2"}
    ]},
    {"molecule": "CC1CNC(C)CN1", "note": "(stereo not shown) [2,5-dimethylpiperazine]", "values": [
      {"measurement": "pH of 0.1 M aqueous sol'n", "setting": "[2]", "value": 11.33},
      {"measurement": "pKa", "setting": "[2]", "value": 9.66}
    ]},
    {"molecule": "Cc1c[nH]c(C)n1", "note": "[2,4-dimethylimidazole]", "values": [
      {"measurement": "pH of 0.1 M aqueous sol'n", "setting": "[2]", "value": 10.68},
      {"measurement": "pKa", "setting": "[2]", "value": 8.36}
    ]},
    {"molecule": "C1CNCCN1", "note": "[piperazine]", "values": [
      {"measurement": "pH of 0.1 M aqueous sol'n", "setting": "[2]", "value": 11.42}
    ]},
    {"molecule": "NC(N)=O", "note": "[urea]", "values": [
      {"measurement": "pH of 0.1 M aqueous sol'n", "setting": "[2]", "value": 6.55}
    ]},
    {"molecule": "COc1ccccn1", "note": "[2-methoxypyridine]", "values": [
      {"measurement": "pH of 0.1 M aqueous sol'n", "setting": "[2]", "value": 8.14}
    ]},
    {"molecule": "CN1CCCC1", "note": "[N-methylpyrrolidine]", "values": [
      {"measurement": "pH of 0.1 M aqueous sol'n", "setting": "[2]", "value": 11.73},
      {"measurement": "pKa", "setting": "[2]", "value": 10.46}
    ]},
    {"molecule": "NCc1ccccc1", "note": "[benzylamine]", "values": [
      {"measurement": "pH of 0.1 M aqueous sol'n", "setting": "[2]", "value": 11.17}
    ]},
    {"molecule": "CCCCN", "note": "[n-butylamine]", "values": [
      {"measurement": "pH of 0.1 M aqueous sol'n", "setting": "[2]", "value": 11.81}
    ]},
    {"molecule": "CC(C)N", "note": "[isopropylamine]", "values": [
      {"measurement": "pH of 0.1 M aqueous sol'n", "setting": "[2]", "value": 11.80},
      {"measurement": "pKa", "setting": "[2]", "value": 10.60}
    ]},
    {"molecule": "Cc1cccnc1C", "note": "[2,3-dimethylpyridine]", "values": [
      {"measurement": "pH of 0.1 M aqueous sol'n", "setting": "[2]", "value": 9.79}
    ]},
    {"molecule": "NCCc1ccccc1", "note": "[phenethylamine]", "values": [
      {"measurement": "pH of 0.1 M aqueous sol'n", "setting": "[2]", "value": 11.42}
    ]},
    {"molecule": "Cc1ccnc(C)c1", "note": "[2,4-dimethylpyridine]", "values": [
      {"measurement": "pH of 0.1 M aqueous sol'n", "setting": "[2]", "value": 10.00},
      {"measurement": "pKa", "setting": "[2]", "value": 6.99}
    ]},
    {"molecule": "CCN1CCCCC1", "note": "[1-ethylpiperidine]", "values": [
      {"measurement": "pH of 0.1 M aqueous sol'n", "setting": "[2]", "value": 11.73},
      {"measurement": "pKa", "setting": "[2]", "value": 10.45}
    ]},
    {"molecule": "Nc1ccc(N)nc1", "note": "[2,5-diaminopyridine]", "values": [
      {"measurement": "pH of 0.1 M aqueous sol'n", "setting": "[2]", "value": 9.74},
      {"measurement": "pKa", "setting": "[2]", "value": 6.48}
    ]},
    {"molecule": "NCCCCN", "note": "[1,4-butanediamine]", "values": [
      {"measurement": "pH of 0.1 M aqueous sol'n", "setting": "[2]", "value": 11.90}
    ]},
    {"molecule": "CC1CCCN1C", "note": "(stereo not shown) [1,2-dimethylpyrrolidine]", "values": [
      {"measurement": "pH of 0.1 M aqueous sol'n", "setting": "[2]", "value": 11.60},
      {"measurement": "pKa", "setting": "[2]", "value": 10.20}
    ]},
    {"molecule": "Cc1cncc(C)c1", "note": "[3,5-dimethylpyridine]", "values": [
      {"measurement": "pH of 0.1 M aqueous sol'n", "setting": "[2]", "value": 9.58}
    ]},
    {"molecule": "Cc1ccncc1", "note": "[γ-picoline]", "values": [
      {"measurement": "pKa", "setting": "[2]", "value": 5.99}
    ]},
    {"molecule": "c1ccc2[nH]cnc2c1", "note": "[benzitnidazole]", "values": [
      {"measurement": "pH of 0.1 M aqueous sol'n", "setting": "[2]", "value": 9.24},
      {"measurement": "pKa", "setting": "[2]", "value": 5.48}
    ]},
    {"molecule": "NCCN", "note": "[ethylenediamine]", "values": [
      {"measurement": "pKa", "setting": "[2]", "value": 9.93}
    ]},
    {"molecule": "COc1cccnc1", "note": "[3-methoxypyridine]", "values": [
      {"measurement": "pH of 0.1 M aqueous sol'n", "setting": "[2]", "value": 8.89},
      {"measurement": "pKa", "setting": "[2]", "value": 4.78}
    ]},
    {"molecule": "COc1ccncc1", "note": "[4-methoxypyridine]", "values": [
      {"measurement": "pH of 0.1 M aqueous sol'n", "setting": "[2]", "value": 9.79},
      {"measurement": "pKa", "setting": "[2]", "value": 6.58}
    ]},
    {"molecule": "CCCCCC(C)N", "note": "(stereo not shown) [2-aminoheptane]", "values": [
      {"measurement": "pH of 0.1 M aqueous sol'n", "setting": "[2]", "value": 11.85},
      {"measurement": "pKa", "setting": "[2]", "value": 10.70}
    ]},
    {"molecule": "CC1CCCCN1C", "note": "(stereo not shown) [1,2-dimethylpiperidine]", "values": [
      {"measurement": "pH of 0.1 M aqueous sol'n", "setting": "[2]", "value": 11.61},
      {"measurement": "pKa", "setting": "[2]", "value": 10.22}
    ]},
    {"molecule": "NC1CCCCC1", "note": "[cyclohexylamine]", "values": [
      {"measurement": "pH of 0.1 M aqueous sol'n", "setting": "[2]", "value": 11.82}
    ]},
    {"molecule": "CC(N)c1ccccc1", "note": "(stereo not drawn) [α-methyl-benzylamine]", "values": [
      {"measurement": "pH of 0.1 M aqueous sol'n", "setting": "[2]", "value": 11.38},
      {"measurement": "pKa", "setting": "[2]", "value": 9.75}
    ]},
    {"molecule": "Cc1cc(C)nc(C)c1", "note": "[2,4,6-trimethylpyridine]", "values": [
      {"measurement": "pKa", "setting": "[2]", "value": 6.69}
    ]}
  ]
}
